According to paper PMC5635128 (Scientific Reports, 2017):

Experiments:
Assay in all cases: biochemical
Parameters in all cases: KINOMEscan competition binding assay, kinase captured on immobilized ligand, per cent of DMSO control
Details in all cases: read-out: % Ctrl
[1] = molecular target: TNK1 (Homo sapiens, UniProt Q13470)
Description: (§1) Competition binding assays were performed by DiscoverX (Freemont, CA, USA). […] S-Score^35 = (number of non-mutant kinases with %Ctrl < 35)/(number of non-mutant kinases tested). […] Kds are calculated […] by measuring the amount of kinase captured on the solid support as a function of the test compound concentration (n = 2, mean ± range).

[2] = molecular target: T1, YES (Homo sapiens, UniProt P07947)
T1 construct: gene YES1
Description: as §1

[3] = molecular target: T2, TRKC (Homo sapiens, UniProt Q16288)
T2 construct: gene NTRK3
T2 sequence (Q16288 whole entry): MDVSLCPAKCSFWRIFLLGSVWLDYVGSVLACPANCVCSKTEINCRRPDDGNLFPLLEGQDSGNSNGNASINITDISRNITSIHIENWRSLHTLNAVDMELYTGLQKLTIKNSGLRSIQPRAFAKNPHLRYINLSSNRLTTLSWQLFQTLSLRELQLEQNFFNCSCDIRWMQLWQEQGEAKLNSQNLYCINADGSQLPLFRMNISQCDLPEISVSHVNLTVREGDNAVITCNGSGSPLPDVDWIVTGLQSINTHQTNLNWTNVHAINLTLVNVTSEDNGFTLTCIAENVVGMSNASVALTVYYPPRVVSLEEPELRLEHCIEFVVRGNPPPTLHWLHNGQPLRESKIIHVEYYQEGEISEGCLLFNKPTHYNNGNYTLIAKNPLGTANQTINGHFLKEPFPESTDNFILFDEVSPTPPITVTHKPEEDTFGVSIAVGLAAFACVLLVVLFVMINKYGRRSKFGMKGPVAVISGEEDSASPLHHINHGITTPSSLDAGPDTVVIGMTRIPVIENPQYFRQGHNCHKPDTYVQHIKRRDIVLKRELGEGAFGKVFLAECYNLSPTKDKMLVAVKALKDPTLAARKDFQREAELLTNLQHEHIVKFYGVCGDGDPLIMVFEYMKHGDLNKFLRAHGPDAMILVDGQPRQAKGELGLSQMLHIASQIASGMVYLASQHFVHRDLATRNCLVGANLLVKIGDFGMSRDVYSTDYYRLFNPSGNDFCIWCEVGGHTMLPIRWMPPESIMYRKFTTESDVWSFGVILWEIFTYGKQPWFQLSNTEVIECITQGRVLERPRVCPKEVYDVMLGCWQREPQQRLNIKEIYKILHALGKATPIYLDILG
Description: as §1

[4] = molecular target: T3, TRKB (Homo sapiens, UniProt Q16620)
T3 construct: gene NTRK2
Description: as §1

[5] = molecular target: TSSK1B (Homo sapiens, UniProt Q9BXA7)
Chain of TSSK1B (Q9BXA7 whole entry): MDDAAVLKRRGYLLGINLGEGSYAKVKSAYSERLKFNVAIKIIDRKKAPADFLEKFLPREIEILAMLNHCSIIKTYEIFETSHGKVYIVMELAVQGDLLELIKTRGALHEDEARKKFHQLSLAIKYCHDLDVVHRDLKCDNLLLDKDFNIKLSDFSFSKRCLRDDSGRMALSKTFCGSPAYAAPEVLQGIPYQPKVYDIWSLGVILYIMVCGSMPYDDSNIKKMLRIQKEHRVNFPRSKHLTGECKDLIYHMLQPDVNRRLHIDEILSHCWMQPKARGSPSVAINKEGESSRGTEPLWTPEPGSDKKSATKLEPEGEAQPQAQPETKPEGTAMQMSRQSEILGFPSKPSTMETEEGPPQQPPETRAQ
Description: as §1

[6] = molecular target: T4, YANK3 (Homo sapiens, UniProt Q86UX6)
T4 construct: gene STK32C
T4 sequence (Q86UX6 whole entry): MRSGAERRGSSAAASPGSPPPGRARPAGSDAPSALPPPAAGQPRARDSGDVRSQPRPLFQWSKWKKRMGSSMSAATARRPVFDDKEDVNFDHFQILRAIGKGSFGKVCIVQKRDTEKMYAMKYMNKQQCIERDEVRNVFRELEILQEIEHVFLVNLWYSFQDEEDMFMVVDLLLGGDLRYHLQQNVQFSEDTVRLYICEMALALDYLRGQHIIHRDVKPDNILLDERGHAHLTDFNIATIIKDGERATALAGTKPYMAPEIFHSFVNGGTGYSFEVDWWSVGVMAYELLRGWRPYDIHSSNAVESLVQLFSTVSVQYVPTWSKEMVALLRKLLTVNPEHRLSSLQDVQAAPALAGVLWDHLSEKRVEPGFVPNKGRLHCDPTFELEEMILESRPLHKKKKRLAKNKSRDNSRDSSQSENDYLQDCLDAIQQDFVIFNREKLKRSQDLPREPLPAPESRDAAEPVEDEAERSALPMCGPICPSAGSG
Description: as §1

[7] = molecular target: WNK1 (Homo sapiens, UniProt Q9H4A3)
Description: as §1

[8] = molecular target: T5, YSK1 (Homo sapiens, UniProt O00506)
T5 construct: gene STK25
Description: as §1

[9] = molecular target: WNK3 (Homo sapiens, UniProt Q9BYP7)
Chain of WNK3 (Q9BYP7 whole entry): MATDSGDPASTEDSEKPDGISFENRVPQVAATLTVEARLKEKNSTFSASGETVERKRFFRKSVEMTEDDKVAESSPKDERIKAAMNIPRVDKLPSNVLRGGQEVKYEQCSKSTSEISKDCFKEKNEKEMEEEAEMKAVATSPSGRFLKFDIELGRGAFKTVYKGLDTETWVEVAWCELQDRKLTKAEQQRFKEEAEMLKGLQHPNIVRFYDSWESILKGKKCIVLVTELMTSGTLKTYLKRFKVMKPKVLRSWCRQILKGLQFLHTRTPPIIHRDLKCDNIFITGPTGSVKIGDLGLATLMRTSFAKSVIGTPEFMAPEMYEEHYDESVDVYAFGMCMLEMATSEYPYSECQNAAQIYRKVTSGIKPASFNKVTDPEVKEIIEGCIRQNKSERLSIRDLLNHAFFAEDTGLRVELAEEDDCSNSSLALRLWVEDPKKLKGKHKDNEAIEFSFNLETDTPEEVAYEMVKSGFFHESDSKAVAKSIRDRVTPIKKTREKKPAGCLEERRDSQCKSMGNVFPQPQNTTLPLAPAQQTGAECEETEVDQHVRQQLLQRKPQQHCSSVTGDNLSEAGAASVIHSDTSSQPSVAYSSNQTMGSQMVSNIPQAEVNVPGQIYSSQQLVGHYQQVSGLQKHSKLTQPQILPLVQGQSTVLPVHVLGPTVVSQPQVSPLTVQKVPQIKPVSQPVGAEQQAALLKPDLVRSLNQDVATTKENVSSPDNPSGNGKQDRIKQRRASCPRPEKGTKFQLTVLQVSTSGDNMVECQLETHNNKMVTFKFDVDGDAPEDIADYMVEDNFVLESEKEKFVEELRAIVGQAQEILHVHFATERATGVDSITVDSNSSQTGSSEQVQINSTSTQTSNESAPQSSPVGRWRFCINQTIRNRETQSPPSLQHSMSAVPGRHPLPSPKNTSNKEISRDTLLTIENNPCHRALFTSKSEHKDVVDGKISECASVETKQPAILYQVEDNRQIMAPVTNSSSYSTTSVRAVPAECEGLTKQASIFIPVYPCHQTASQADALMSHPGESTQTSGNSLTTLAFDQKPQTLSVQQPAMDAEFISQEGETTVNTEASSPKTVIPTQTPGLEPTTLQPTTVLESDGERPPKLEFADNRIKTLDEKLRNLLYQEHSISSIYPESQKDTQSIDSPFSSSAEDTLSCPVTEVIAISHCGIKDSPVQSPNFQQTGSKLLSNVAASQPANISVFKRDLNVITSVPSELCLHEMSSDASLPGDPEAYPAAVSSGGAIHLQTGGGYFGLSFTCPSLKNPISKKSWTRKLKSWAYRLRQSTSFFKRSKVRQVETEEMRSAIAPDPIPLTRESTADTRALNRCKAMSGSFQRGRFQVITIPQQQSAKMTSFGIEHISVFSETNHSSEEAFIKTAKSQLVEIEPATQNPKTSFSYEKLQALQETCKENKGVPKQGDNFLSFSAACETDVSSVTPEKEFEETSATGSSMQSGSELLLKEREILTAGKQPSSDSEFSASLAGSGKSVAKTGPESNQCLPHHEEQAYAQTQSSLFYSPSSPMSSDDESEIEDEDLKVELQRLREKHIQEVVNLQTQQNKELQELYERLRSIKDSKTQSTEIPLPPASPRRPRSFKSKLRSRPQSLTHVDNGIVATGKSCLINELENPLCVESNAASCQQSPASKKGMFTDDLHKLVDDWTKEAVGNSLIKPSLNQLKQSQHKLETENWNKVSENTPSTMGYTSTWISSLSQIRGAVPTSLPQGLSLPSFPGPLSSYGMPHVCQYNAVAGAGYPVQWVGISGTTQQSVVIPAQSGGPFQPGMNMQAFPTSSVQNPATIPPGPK
Description: as §1

[10] = molecular target: ULK3 (Homo sapiens, UniProt Q6PHR2)
Description: as §1

[11] = molecular target: TLK2 (Homo sapiens, UniProt Q86UE8)
Description: as §1

[12] = molecular target: T6, ZAK (Homo sapiens, UniProt Q9NYL2)
T6 construct: gene MAP3K20
Description: as §1

[13] = molecular target: TNK2 (Homo sapiens, UniProt Q07912)
Description: as §1

[14] = molecular target: TYRO3 (Homo sapiens, UniProt Q06418)
Description: as §1

[15] = molecular target: T7, YANK2 (Homo sapiens, UniProt Q9NY57)
T7 construct: gene STK32B
Description: as §1

[16] = molecular target: TNIK (Homo sapiens, UniProt Q9UKE5)
Description: as §1

[17] = molecular target: ZAP70 (Homo sapiens, UniProt P43403)
Chain of ZAP70 (P43403 whole entry): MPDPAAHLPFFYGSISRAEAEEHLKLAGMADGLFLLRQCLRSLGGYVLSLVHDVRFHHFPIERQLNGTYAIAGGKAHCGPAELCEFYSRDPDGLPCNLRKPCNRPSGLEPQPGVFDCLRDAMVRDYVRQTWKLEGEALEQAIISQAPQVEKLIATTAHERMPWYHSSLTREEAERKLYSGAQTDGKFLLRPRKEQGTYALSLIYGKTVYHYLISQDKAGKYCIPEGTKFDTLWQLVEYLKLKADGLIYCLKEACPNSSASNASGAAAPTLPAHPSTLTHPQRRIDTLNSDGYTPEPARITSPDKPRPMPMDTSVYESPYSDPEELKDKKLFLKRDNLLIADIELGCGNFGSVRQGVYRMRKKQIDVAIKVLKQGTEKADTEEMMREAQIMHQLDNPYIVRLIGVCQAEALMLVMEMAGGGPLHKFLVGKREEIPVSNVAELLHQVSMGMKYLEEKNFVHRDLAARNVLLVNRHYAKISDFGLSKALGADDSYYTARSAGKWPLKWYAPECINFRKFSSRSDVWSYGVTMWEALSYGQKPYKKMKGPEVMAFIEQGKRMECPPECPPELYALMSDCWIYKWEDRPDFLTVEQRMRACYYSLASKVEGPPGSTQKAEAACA
Description: as §1

[18] = molecular target: TTK (Homo sapiens, UniProt P33981)
Description: as §1

[19] = molecular target: T8, TYK2(JH1domain-catalytic) (Homo sapiens, UniProt P29597)
T8 construct: JH1domain-catalytic
Description: as §1

[20] = molecular target: T9, YANK1 (Homo sapiens, UniProt Q8WU08)
T9 construct: gene STK32A
Description: as §1

[21] = molecular target: ULK1 (Homo sapiens, UniProt O75385)
Description: as §1

[22] = molecular target: VRK2 (Homo sapiens, UniProt Q86Y07)
Description: as §1

[23] = molecular target: T10, YSK4 (Homo sapiens, UniProt Q56UN5)
T10 construct: gene MAP3K19
Description: as §1

[24] = molecular target: TLK1 (Homo sapiens, UniProt Q9UKI8)
Chain of TLK1 (Q9UKI8 whole entry): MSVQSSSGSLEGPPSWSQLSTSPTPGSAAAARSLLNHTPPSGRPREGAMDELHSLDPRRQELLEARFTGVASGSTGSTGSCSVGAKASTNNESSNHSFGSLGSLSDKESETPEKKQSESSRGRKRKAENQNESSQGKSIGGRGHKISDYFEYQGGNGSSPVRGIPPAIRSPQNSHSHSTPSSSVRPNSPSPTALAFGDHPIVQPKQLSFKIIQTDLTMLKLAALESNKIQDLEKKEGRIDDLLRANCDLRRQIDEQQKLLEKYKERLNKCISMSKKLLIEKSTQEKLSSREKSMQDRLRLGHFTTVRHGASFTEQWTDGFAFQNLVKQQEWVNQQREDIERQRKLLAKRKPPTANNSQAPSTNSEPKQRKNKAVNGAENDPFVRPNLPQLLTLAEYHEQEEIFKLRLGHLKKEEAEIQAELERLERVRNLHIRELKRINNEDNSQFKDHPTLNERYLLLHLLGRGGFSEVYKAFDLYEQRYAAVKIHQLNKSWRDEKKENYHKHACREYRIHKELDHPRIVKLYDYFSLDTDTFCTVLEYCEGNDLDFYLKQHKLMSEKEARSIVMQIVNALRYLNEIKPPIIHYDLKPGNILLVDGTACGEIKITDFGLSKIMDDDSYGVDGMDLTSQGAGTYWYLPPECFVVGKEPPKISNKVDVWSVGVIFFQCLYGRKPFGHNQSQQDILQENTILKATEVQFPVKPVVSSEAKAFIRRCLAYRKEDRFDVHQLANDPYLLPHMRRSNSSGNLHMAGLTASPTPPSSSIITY
Description: as §1

[25] = molecular target: WEE1 (Homo sapiens, UniProt P30291)
Description: as §1

[26] = molecular target: ULK2 (Homo sapiens, UniProt Q8IYT8)
Description: as §1

[27] = molecular target: T11, TYK2(JH2domain-pseudokinase) (Homo sapiens, UniProt P29597)
T11 construct: JH2domain-pseudokinase
Description: as §1

[28] = molecular target: TRPM6 (Homo sapiens, UniProt Q9BX84)
Description: as §1

[29] = molecular target: T12, VEGFR2 (Homo sapiens, UniProt P35968)
T12 construct: gene KDR
Description: as §1

[30] = molecular target: T13, TRKA (Homo sapiens, UniProt P04629)
T13 construct: gene NTRK1
Description: as §1

[31] = molecular target: WEE2 (Homo sapiens, UniProt P0C1S8)
Description: as §1

[32] = molecular target: TXK (Homo sapiens, UniProt P42681)
Description: as §1

[33] = molecular target: TNNI3K (Homo sapiens, UniProt Q59H18)
Description: as §1

[34] = molecular target: T14, TIE2 (Homo sapiens, UniProt Q02763)
T14 construct: gene TEK
Description: as §1

COc1cc(O)c2c(c1)OC(O)(c1ccc(OCc3ccccc3)cc1)CC2=O (stereo not shown) [6E11, 2-(4-(benzyloxy)phenyl)-2,5-dihydroxy-7-methoxychroman-4-one] showed a percent of control binding at 10 µM [1] of 88%, a percent of control binding at 10 µM [2] of 87% and a percent of control binding at 10 µM [3] of 100%. For the same molecule, the percent of control binding at 10 µM [4] was 100%, the percent of control binding at 10 µM [5] was 83% and the percent of control binding at 10 µM [6] was 72%. The percent of control binding at 10 µM [7] was 61%, the percent of control binding at 10 µM [8] was 88% and the percent of control binding at 10 µM [9] was 50%. It also gave a percent of control binding at 10 µM [10] of 71%, a percent of control binding at 10 µM [11] of 83% and a percent of control binding at 10 µM [12] of 100%. The percent of control binding at 10 µM [13] was 92%, the percent of control binding at 10 µM [14] was 93% and the percent of control binding at 10 µM [15] was 84%. For the same molecule, the percent of control binding at 10 µM [16] was 85%, the percent of control binding at 10 µM [17] was 100% and the percent of control binding at 10 µM [18] was 99%. For the same molecule, the percent of control binding at 10 µM [19] was 97%, the percent of control binding at 10 µM [20] was 60% and the percent of control binding at 10 µM [21] was 79%. The percent of control binding at 10 µM [22] was 58%, the percent of control binding at 10 µM [23] was 81% and the percent of control binding at 10 µM [24] was 100%. The percent of control binding at 10 µM [25] was 82%, the percent of control binding at 10 µM [26] was 98% and the percent of control binding at 10 µM [27] was 86%. The percent of control binding at 10 µM [28] was 60%, the percent of control binding at 10 µM [29] was 82% and the percent of control binding at 10 µM [30] was 93%. For the same molecule, the percent of control binding at 10 µM [31] was 88%, the percent of control binding at 10 µM [32] was 100% and the percent of control binding at 10 µM [33] was 98%. It also gave a percent of control binding at 10 µM [34] of 100%.
